PubChem BioAssay (NCI)
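Assay format: 96-well plates, 48-hour exposure. GI50 = concentration required for 50% inhibition of growth. Definition used: TGI = concentration required for complete inhibition of growth.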

Tests used:
Test in all cases: inhibition of tumour cell growth, NCI panel, 48 h
[1] = test system: SF-295 CNS
[2] = test system: HOP-62 NSCLC
[3] = test system: SN12C renal
[4] = test system: ACHN renal
[5] = test system: PC-3 prostate
[6] = test system: NCI-H226 lung
[7] = test system: COLO 205 colon
[8] = test system: UO-31 renal
[9] = test system: SR leukemia
[10] = test system: SK-MEL-2 melanoma
[11] = test system: SK-MEL-5 melanoma
[12] = test system: UACC-257 melanoma
[13] = test system: SF-539 CNS
[14] = test system: K-562 leukemia
[15] = test system: NCI-H23 lung
[16] = test system: BT-549 breast
[17] = test system: A498 renal
[18] = test system: HCT-116 colon
[19] = test system: SNB-19 CNS
[20] = test system: HCC-2998 colon
[21] = test system: NCI-H460 lung
[22] = test system: RPMI-8226 leukemia
[23] = test system: A549 NSCLC
[24] = test system: IGROV1 ovarian
[25] = test system: MDA-MB-231 breast
[26] = test system: HL-60(TB) leukemia
[27] = test system: OVCAR-3 ovarian
[28] = test system: TK-10 renal
[29] = test system: U251 CNS
[30] = test system: HCT-15 colon
[31] = test system: T-47D breast
[32] = test system: HOP-92 NSCLC
[33] = test system: SF-268 CNS
[34] = test system: OVCAR-8 ovarian
[35] = test system: 786-0 renal
[36] = test system: SW-620 colon
[37] = test system: HT29 colon
[38] = test system: EKVX NSCLC
[39] = test system: OVCAR-4 ovarian
[40] = test system: SK-MEL-28 melanoma
[41] = test system: SK-OV-3 ovarian
[42] = test system: MALME-3M melanoma
[43] = test system: LOX IMVI melanoma
[44] = test system: DU-145 prostate
[45] = test system: MCF7 breast
[46] = test system: NCI/ADR-RES ovarian
[47] = test system: MDA-MB-435
[48] = test system: UACC-62 melanoma
[49] = test system: M14 melanoma
[50] = test system: OVCAR-5 ovarian
[51] = test system: CCRF-CEM leukemia
[52] = test system: MOLT-4 leukemia
[53] = test system: CAKI-1 renal
[54] = test system: SNB-75 CNS
[55] = test system: NCI-H522 lung
[56] = test system: KM12 colon
[57] = test system: HS 578T breast
[58] = test system: RXF 393 renal

Question: How did the GI50 [1] turn out when `O=C(/C=C/c1cc2ccccc2[nH]c1=O)c1ccc(Cl)cc1` was run?
Answer: 23.2 µM

Question: And the TGI [1]?
Answer: > 72.6 µM

Question: What about the GI50 [2] of the same compound?
Answer: 29.6 µM

Question: What about the TGI [2] of the same compound?
Answer: > 76.2 µM

Question: And the GI50 [3]?
Answer: 30.8 µM

Question: What about the TGI [3] of the same compound?
Answer: > 100 µM

Question: And the GI50 [4]?
Answer: 33 µM

Question: And the TGI [4]?
Answer: > 64.9 µM

Question: And the GI50 [5]?
Answer: > 67.7 µM

Question: What about the TGI [5] of the same compound?
Answer: > 100 µM

Question: And the GI50 [6]?
Answer: 41 µM

Question: And the TGI [6]?
Answer: > 73 µM

Question: And the GI50 [7]?
Answer: 37.4 µM

Question: And the TGI [7]?
Answer: > 80 µM

Question: What about the GI50 [8] of the same compound?
Answer: > 23 µM

Question: And the TGI [8]?
Answer: > 100 µM

Question: What about the GI50 [9] of the same compound?
Answer: 15.6 µM

Question: And the TGI [9]?
Answer: > 57.6 µM

Question: What about the GI50 [10] of the same compound?
Answer: 30.1 µM

Question: And the TGI [10]?
Answer: > 63.6 µM

Question: And the GI50 [11]?
Answer: 47.6 µM

Question: And the TGI [11]?
Answer: > 100 µM

Question: And the GI50 [12]?
Answer: 33.5 µM

Question: What about the TGI [12] of the same compound?
Answer: > 77.7 µM

Question: What about the GI50 [13] of the same compound?
Answer: 16.9 µM

Question: What about the TGI [13] of the same compound?
Answer: 39.3 µM

Question: And the GI50 [14]?
Answer: > 71.3 µM

Question: What about the TGI [14] of the same compound?
Answer: > 100 µM

Question: What about the GI50 [15] of the same compound?
Answer: 27.3 µM

Question: What about the TGI [15] of the same compound?
Answer: 97.7 µM

Question: What about the GI50 [16] of the same compound?
Answer: 24.9 µM

Question: And the TGI [16]?
Answer: > 55.6 µM

Question: And the GI50 [17]?
Answer: > 56.3 µM

Question: What about the TGI [17] of the same compound?
Answer: > 100 µM

Question: And the GI50 [18]?
Answer: 18 µM

Question: And the TGI [18]?
Answer: 49.1 µM

Question: What about the GI50 [19] of the same compound?
Answer: 28.2 µM

Question: What about the TGI [19] of the same compound?
Answer: > 100 µM

Question: And the GI50 [20]?
Answer: 25.1 µM

Question: What about the TGI [20] of the same compound?
Answer: 56.6 µM

Question: And the GI50 [21]?
Answer: 26.2 µM

Question: What about the TGI [21] of the same compound?
Answer: > 57.3 µM

Question: What about the GI50 [22] of the same compound?
Answer: 13.8 µM

Question: And the TGI [22]?
Answer: 50.1 µM

Question: What about the GI50 [23] of the same compound?
Answer: 30.7 µM

Question: What about the TGI [23] of the same compound?
Answer: > 100 µM

Question: What about the GI50 [24] of the same compound?
Answer: 23.3 µM

Question: What about the TGI [24] of the same compound?
Answer: > 52.8 µM

Question: And the GI50 [25]?
Answer: 25.5 µM

Question: What about the TGI [25] of the same compound?
Answer: 61.3 µM

Question: What about the TGI [26] of the same compound?
Answer: > 100 µM

Question: What about the GI50 [27] of the same compound?
Answer: 27.3 µM

Question: And the TGI [27]?
Answer: > 67.6 µM

Question: And the GI50 [28]?
Answer: 26.4 µM

Question: What about the TGI [28] of the same compound?
Answer: > 59.3 µM

Question: What about the GI50 [29] of the same compound?
Answer: 19.1 µM

Question: What about the TGI [29] of the same compound?
Answer: > 48.5 µM

Question: What about the GI50 [30] of the same compound?
Answer: 20.2 µM

Question: What about the TGI [30] of the same compound?
Answer: > 58.7 µM

Question: What about the GI50 [31] of the same compound?
Answer: 27.3 µM

Question: And the TGI [31]?
Answer: > 100 µM

Question: What about the GI50 [32] of the same compound?
Answer: 21.6 µM

Question: What about the TGI [32] of the same compound?
Answer: 76.8 µM

Question: What about the GI50 [33] of the same compound?
Answer: 28 µM

Question: And the TGI [33]?
Answer: > 85.8 µM

Question: What about the GI50 [34] of the same compound?
Answer: 25.3 µM

Question: What about the TGI [34] of the same compound?
Answer: > 59.6 µM

Question: And the GI50 [35]?
Answer: > 37.2 µM

Question: And the TGI [35]?
Answer: > 100 µM

Question: What about the GI50 [36] of the same compound?
Answer: 20.5 µM

Question: What about the TGI [36] of the same compound?
Answer: > 49.5 µM

Question: What about the GI50 [37] of the same compound?
Answer: 21 µM

Question: What about the TGI [37] of the same compound?
Answer: > 60.8 µM

Question: What about the GI50 [38] of the same compound?
Answer: 28.5 µM

Question: What about the TGI [38] of the same compound?
Answer: > 100 µM

Question: What about the GI50 [39] of the same compound?
Answer: 17.3 µM

Question: And the TGI [39]?
Answer: > 100 µM

Question: What about the GI50 [40] of the same compound?
Answer: > 56.1 µM

Question: What about the TGI [40] of the same compound?
Answer: > 89.8 µM

Question: What about the GI50 [41] of the same compound?
Answer: 55.1 µM

Question: What about the TGI [41] of the same compound?
Answer: > 100 µM

Question: What about the GI50 [42] of the same compound?
Answer: 37.2 µM

Question: And the TGI [42]?
Answer: > 70.7 µM

Question: What about the GI50 [43] of the same compound?
Answer: 19.4 µM

Question: What about the TGI [43] of the same compound?
Answer: > 60.5 µM

Question: What about the GI50 [44] of the same compound?
Answer: 23 µM

Question: What about the TGI [44] of the same compound?
Answer: > 78.8 µM

Question: And the GI50 [45]?
Answer: 17.9 µM

Question: And the TGI [45]?
Answer: > 100 µM

Question: And the GI50 [46]?
Answer: 21.9 µM

Question: And the TGI [46]?
Answer: 56.2 µM

Question: What about the GI50 [47] of the same compound?
Answer: 18.8 µM

Question: And the TGI [47]?
Answer: > 50.8 µM

Question: What about the GI50 [48] of the same compound?
Answer: 26.4 µM

Question: And the TGI [48]?
Answer: > 81.6 µM

Question: What about the GI50 [49] of the same compound?
Answer: 28.7 µM

Question: What about the TGI [49] of the same compound?
Answer: > 73.5 µM

Question: And the GI50 [50]?
Answer: 38.2 µM

Question: What about the TGI [50] of the same compound?
Answer: 99 µM

Question: And the GI50 [51]?
Answer: 21.6 µM

Question: What about the TGI [51] of the same compound?
Answer: > 100 µM

Question: And the GI50 [52]?
Answer: 22.8 µM

Question: What about the TGI [52] of the same compound?
Answer: > 100 µM

Question: And the GI50 [53]?
Answer: 16.8 µM

Question: And the TGI [53]?
Answer: > 32.1 µM

Question: And the GI50 [54]?
Answer: 22.4 µM

Question: What about the TGI [54] of the same compound?
Answer: 61.5 µM

Question: What about the GI50 [55] of the same compound?
Answer: 15.7 µM

Question: What about the TGI [55] of the same compound?
Answer: 32.1 µM

Question: What about the GI50 [56] of the same compound?
Answer: 22.3 µM

Question: What about the TGI [56] of the same compound?
Answer: > 54.6 µM

Question: What about the GI50 [57] of the same compound?
Answer: > 48 µM

Question: And the TGI [57]?
Answer: > 100 µM

Question: What about the GI50 [58] of the same compound?
Answer: 22.9 µM

Question: And the TGI [58]?
Answer: > 60.2 µM
